The values below come from patent US20210341378A1, “HIGH-CONTENT IMAGING OF MICROFLUIDIC DEVICES” (priority 2019, published 2021).

The subject of data set [1] is microfluidic devices seeded with human liver cells. As to the kind of experiment: Cytokine release (IL-6, MCP-1, IP-10) from vascular channel, human Liver-Chip. The class given is cell-based. To be noted: for cytokines/chemokines including IP-10: treated Liver-Chips (discussion); for release of IL-6 / release of MCP-1: 14 days. As to the method:
Cytokines: Release of IL-6, MCP-1, and IP-10 from the vascular channel was quantified using U-PLEX biomarker human assays (Meso Scale Diagnostics, Rockville, Md., USA) and the assays were performed according to the protocol provided by the vendor.

Data set [2] deals with microfluidic devices seeded with rat liver cells. Kind of data set: Lipid accumulation (Nile red), rat Liver-Chip. The class given is cell-based. Conditions: FIAU 1, 10 and 30 μM for 10 days. From the text:
Microfluidic devices seeded with liver cells were stained in the upper channel with 5(6)-Carboxy-2′,7′-dichlorofluorescein diacetate (CDFDA) (ThermoFisher) to visualize bile canaliculi and MRP2 activity, cholyl-lysyl-fluorescein (CLF) (Corning) to visualize bile canaliculi and BSEP activity, Nile red (ThermoFisher) or AdipoRed (Lonza) to visualize lipid droplet accumulation, Tetramethylrhodamine, methyl ester (TMRM) (ThermoFisher) to visualize active mitochondria, and CellROX® (ThermoFisher) to visualize cellular oxidative stress. Each staining solution was prepared in blank medium or compound dosing medium and added to the upper channel, incubated for 15 minutes at 37° C., and washed three times with medium. […] Using ImageJ-Fiji, the fluorescent channel images were histogram adjusted to remove background, followed by fluorescence quantification using the Integrated Density calculation function.
(§1) The stained microfluidic devices were imaged using the TRITC filter, and were de-blurred with Olympus cellSens software. Using ImageJ-Fiji, the fluorescent channel images were histogram adjusted to remove background, followed by fluorescence quantification using the Integrated Density calculation function. N=5 FOVs per microfluidic device were analyzed for conditions: vehicle (0.1% DMSO), FIAU dosing groups, and MTX dosing groups.

The conditions of data set [3]: cited from earlier work.
Data set [4] deals with microfluidic devices seeded with rat liver cells. Kind of data set: Albumin secretion (ELISA), rat Liver-Chip. The class given is cell-based. Conditions: FIAU 1, 10 and 30 μM, rat chip. From the text:
Prior to cell seeding, microfluidic devices, in this case S-I Chips (Emulate, Inc. Boston, Mass., USA), were functionalized using Emulate's proprietary protocols and reagents (ER™), including those described herein. After surface functionalization, both channels of the microfluidic device were coated with species-specific extracellular matrices (ECM). For the human bound microfluidic device, a mixture of collagen type I (Corning, Corning, N.Y., USA) and fibronectin, e.g. bovine, (Gibco) was used; for the rat bound microfluidic devices a mixture of collagen type IV, e.g. human placenta, (Sigma-Aldrich, St. Louis, Mo., USA) and fibronectin (Gibco) was used; for the dog bound microfluidic devices a mixture of collagen I (Corning), collagen type IV (Sigma-Aldrich), and fibronectin (Gibco) was used. […] For the dual-cell culture model (hepatocytes and endothelial cells), the LSECs were seeded at a concentration of 2-4 million cells/mL in the lower vascular channel. […] Albumin secretion from the upper channel was quantified using ELISA kits for human, rat, and dog models effluent samples (human and rat: Abcam; dog: Immunology Consultants Laboratory, Inc., Portland, Oreg., USA) and the assays were performed according to the protocol provided by each vendor.
For orientation: ELISA stands for enzyme-linked immunosorbent assay.

In data set [5] the test system is microfluidic devices seeded with human liver cells. As to the kind of experiment: Release of DILI biomarkers (miR-122, alpha-GST, keratin 18), human Liver-Chip. The class given is cell-based. The text has this:
Exemplary Biomarker, e.g. DILI: Keratin 18 levels were quantified in human model effluent samples from both the hepatocyte and vascular channels using the M65 EpiDeath CK18 ELISA Kit (DiaPharma, Detroit, Mich., USA). The assay was run following the vendor protocol using a standard curve ranging from 0-5,000 U/L. Additionally, a standard curve ranging from 0-500 U/L was generated independently for quality control.
Exemplary Biomarker, e.g. DILI: Alpha Glutathione S-Transferase (α-GST) levels were quantified in human model effluent samples from the upper channel using an ELISA kit (DiaPharma). The assay was run following the vendor protocol using a standard curve ranging from 0-64 μg/L. Additionally, a standard curve ranging from 0-50 μg/L was generated independently for quality control.
Exemplary Biomarker, e.g. DILI: Mir-122: Isolation of micro-RNAs was performed on upper and lower chamber eluates using Qiagen's (Hilden, Germany) miRNA isolation kit for serum and plasma. A total volume of 50 μL was used for isolation. Isolation was performed according to manufacturer's protocol using a 56.5 pM oligonucleotide spike-in control. Samples were eluted with 14 μL RNase-free water. Reverse transcription was performed using Thermo Fisher Scientific's TaqMan™ MicroRNA Reverse Transcription Kit according to the manufacturer's protocol. A total reaction volume of 15 μL was used. Real-time PCR was performed using Thermo Fisher Scientific's TaqMan™ Micro-RNA Assays according to manufacturer's protocol. A total reaction volume of 10 μL was used. Normalized rrCt was used for fold-change analysis.

Data set [6] has the same test system. As to the kind of experiment: Lipid accumulation (Nile red / AdipoRed), human Liver-Chip. The class given is cell-based.
From the text: (§2) Microfluidic devices seeded with liver cells were stained in the upper channel with 5(6)-Carboxy-2′,7′-dichlorofluorescein diacetate (CDFDA) (ThermoFisher) to visualize bile canaliculi and MRP2 activity, cholyl-lysyl-fluorescein (CLF) (Corning) to visualize bile canaliculi and BSEP activity, Nile red (ThermoFisher) or AdipoRed (Lonza) to visualize lipid droplet accumulation, Tetramethylrhodamine, methyl ester (TMRM) (ThermoFisher) to visualize active mitochondria, and CellROX® (ThermoFisher) to visualize cellular oxidative stress. Each staining solution was prepared in blank medium or compound dosing medium and added to the upper channel, incubated for 15 minutes at 37° C., and washed three times with medium. The stained microfluidic devices were imaged using a specific filter, and were de-blurred with Olympus cellSens software. Using ImageJ-Fiji, the fluorescent channel images were histogram adjusted to remove background, followed by fluorescence quantification using the Integrated Density calculation function.
as §1

For data set [7] the test system is unchanged. Kind of data set: Albumin secretion (ELISA), human Liver-Chip. The format is cell-based. The text has this: Prior to cell seeding, microfluidic devices, in this case S-I Chips (Emulate, Inc. Boston, Mass., USA), were functionalized using Emulate's proprietary protocols and reagents (ER™), including those described herein. After surface functionalization, both channels of the microfluidic device were coated with species-specific extracellular matrices (ECM). For the human bound microfluidic device, a mixture of collagen type I (Corning, Corning, N.Y., USA) and fibronectin, e.g. bovine, (Gibco) was used; for the rat bound microfluidic devices a mixture of collagen type IV, e.g. human placenta, (Sigma-Aldrich, St. Louis, Mo., USA) and fibronectin (Gibco) was used; for the dog bound microfluidic devices a mixture of collagen I (Corning), collagen type IV (Sigma-Aldrich), and fibronectin (Gibco) was used. […] For the dual-cell culture model (hepatocytes and endothelial cells), the LSECs were seeded at a concentration of 2-4 million cells/mL in the lower vascular channel. […] After cell seeding, the upper channel of the microfluidic device was maintained in William's E Medium (WEM) containing Glutamax (Gibco), ITS+ (Corning), dexamethasone (Sigma-Aldrich), ascorbic acid (Sigma-Aldrich), fetal bovine serum (FBS) (Sigma-Aldrich), and Penicillin/Streptomycin (Sigma-Aldrich). The vascular channel of the microfluidic device was maintained with species-specific endothelial media (Emulate, Inc.). Two days after seeding, the microfluidic devices were connected to the Human Emulation System™ (Emulate, Inc.), as described in part herein, and both of the microfluidic device channels were perfused at 30 μL/hr to provide a continuous supply of fresh media for the duration of the experiments. Albumin secretion from the upper channel was quantified using ELISA kits for human, rat, and dog models effluent samples (human and rat: Abcam; dog: Immunology Consultants Laboratory, Inc., Portland, Oreg., USA) and the assays were performed according to the protocol provided by each vendor.

The subject of the next data set is stellate cells. As to the kind of experiment: Stellate cell activation (alpha-SMA), human Liver-Chip. The class given is cell-based. The method, then:
Microfluidic devices seeded with liver cells and static sandwich plate cultures were fixed with 4% paraformaldehyde for 15 minutes at room temperature, washed with PBS, and permeabilized (saponin 1% with 10% serum in PBS). Blocking and incubation with the primary antibodies (overnight in PBS containing 1% BSA or PBS containing 10% serum and 1% BSA) was followed by a two-hour incubation with secondary antibodies (Cell Signaling, Danvers, Mass., USA) in the same blocking buffer. Immunostaining was performed with specific primary antibodies (anti-MRP2, anti-stabilin-1, anti-BSEP, anti-α-SMA, anti-CD68; Abcam, Cambridge, Mass., USA) and images were acquired with either an Olympus fluorescence microscope (IX83) or Zeiss confocal microscope (AxiovertZ1 LSM880).
The number of CD68- or α-SMA-positive cells in the vascular channel in each group was counted in each field of view ([…]) and quantified.
The fluorescent channel (588) was first background subtracted and processed using the median filter of Image J. After processing, the signal was thresholded using adaptive thresholding function of Image J (Otsu method) to extract fluorescent regions and to measure the relative intensity of the fluorescent signal. N=4 to 6 FOVs per microfluidic device from each microfluidic device were analyzed. […]

The conditions of data set [8]: some patient populations; cited from earlier work.
The subject of data set [9] is mitochondrial membrane potential. Kind of data set: TMRM staining (mitochondrial membrane potential), human Liver-Chip. The class given is cell-based. To be noted: TAK-875 3, 10, 30 μM, 8 or 15 days.
From the text: as §2

In the next data set the target is T1, MRP2 (Homo sapiens, UniProt Q92887).
T1 construct: Primary rat, dog or human hepatocytes were cultured in the upper parenchymal channel; endogenous in cells; host or cells: primary human hepatocytes in a microfluidic Liver-Chip
Kind of data set: Biliary efflux of CDFDA (MRP2 activity), human Liver-Chip. The class given is cell-based. Conditions: TAK-875 3, 10, 30 μM.

Data set [10] deals with microfluidic devices seeded with human liver cells. As to the kind of experiment: ROS (CellROX) live staining, human Liver-Chip. The format is cell-based. To be noted: TAK-875, human chip.
The mark [11] stands for this setting: daily 1, 10 and 30 μM for 7 days, quadruple-cell chip.

Molecules are shown by their SMILES.

T1 sequence (Q92887 whole entry): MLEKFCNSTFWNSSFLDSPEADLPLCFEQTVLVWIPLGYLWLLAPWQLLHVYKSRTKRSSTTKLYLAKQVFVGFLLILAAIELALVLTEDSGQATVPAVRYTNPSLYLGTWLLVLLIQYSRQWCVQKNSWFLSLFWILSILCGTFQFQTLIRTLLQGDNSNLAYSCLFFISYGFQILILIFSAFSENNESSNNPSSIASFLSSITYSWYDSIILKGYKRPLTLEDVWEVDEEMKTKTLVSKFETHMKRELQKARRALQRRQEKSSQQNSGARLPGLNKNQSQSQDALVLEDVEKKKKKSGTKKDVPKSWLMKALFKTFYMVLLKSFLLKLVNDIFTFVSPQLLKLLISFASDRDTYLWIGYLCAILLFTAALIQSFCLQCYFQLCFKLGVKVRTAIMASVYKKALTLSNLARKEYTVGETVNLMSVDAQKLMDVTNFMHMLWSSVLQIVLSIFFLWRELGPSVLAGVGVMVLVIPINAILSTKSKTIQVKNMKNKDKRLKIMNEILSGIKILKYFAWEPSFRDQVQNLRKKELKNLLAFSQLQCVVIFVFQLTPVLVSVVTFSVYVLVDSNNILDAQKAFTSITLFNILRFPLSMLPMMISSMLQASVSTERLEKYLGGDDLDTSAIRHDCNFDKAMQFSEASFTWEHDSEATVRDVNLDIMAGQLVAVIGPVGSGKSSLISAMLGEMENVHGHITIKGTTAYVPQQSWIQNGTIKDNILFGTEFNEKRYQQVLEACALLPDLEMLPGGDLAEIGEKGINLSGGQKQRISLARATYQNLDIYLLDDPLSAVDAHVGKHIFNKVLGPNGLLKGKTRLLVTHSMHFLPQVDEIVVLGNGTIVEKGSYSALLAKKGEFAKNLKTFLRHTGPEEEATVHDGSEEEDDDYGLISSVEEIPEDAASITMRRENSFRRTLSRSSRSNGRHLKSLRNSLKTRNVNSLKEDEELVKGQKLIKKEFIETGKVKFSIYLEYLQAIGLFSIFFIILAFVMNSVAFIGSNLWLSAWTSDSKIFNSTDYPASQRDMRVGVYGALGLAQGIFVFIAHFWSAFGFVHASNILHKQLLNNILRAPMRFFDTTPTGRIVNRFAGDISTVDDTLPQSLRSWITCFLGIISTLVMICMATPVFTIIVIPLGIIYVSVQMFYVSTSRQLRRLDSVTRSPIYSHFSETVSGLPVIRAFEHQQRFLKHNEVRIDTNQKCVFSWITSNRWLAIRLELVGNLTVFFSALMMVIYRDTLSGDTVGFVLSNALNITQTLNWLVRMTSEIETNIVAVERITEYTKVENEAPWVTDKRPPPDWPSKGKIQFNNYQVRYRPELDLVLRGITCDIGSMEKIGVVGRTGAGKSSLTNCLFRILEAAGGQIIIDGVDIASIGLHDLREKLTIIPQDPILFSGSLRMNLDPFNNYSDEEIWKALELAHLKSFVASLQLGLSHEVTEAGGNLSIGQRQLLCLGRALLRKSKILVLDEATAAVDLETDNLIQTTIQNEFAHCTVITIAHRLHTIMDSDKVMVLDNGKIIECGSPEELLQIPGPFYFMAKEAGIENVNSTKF
Protocol for MRP2: Both a brightfield and a fluorescence image was taken from each field of view. […] CLF-labeled regions that most likely to corresponded to bile canaliculi were automatically identified based on geometric criteria and retained only if they co-localized with a bile canaliculi signal in channel 1. […] These criteria were determined empirically using a small test set of images and then applied to images for the analysis. […] The data for treated and control samples were quantified by computing the area percentage of CLF-labeled bile canaliculi within each field of view (FOV).

Consider `O=c1[nH]c(=O)n([C@@H]2O[C@H](CO)[C@@H](O)[C@@H]2F)cc1I` [FIAU, fialuridine], for which, in [1], the “cytokines/chemokines including IP-10” value was “release”. Besides, the lipid accumulation result in data set [2] is on record as “no effects”. Further, the “patients with liver failure and deaths” value in data set [3] (Phase II clinical trials) is reported as 5/15. In addition, the “hepatocyte function (albumin secretion)” value in [4] is listed as “no effects”. In data set [5] (FIAU 10 days, human chip), the “keratin 18 (K-18)” value is listed as “release”, the miR122 entry was “release” and the α-GST entry is reported as “release”. Moreover, in data set [6] (daily 1, 10 and 30 μM for 10 days, human quadruple-cell chip), the lipid accumulation entry is given as “dose-dependent increase”. In data set [7] (FIAU, human quadruple-cell chip, 7 days), the “concentrations giving dose-dependent decline in albumin secretion” value is ≥ 1000 nM.

`CN(Cc1cnc2nc(N)nc(N)c2n1)c1ccc(C(=O)N[C@@H](CCC(=O)O)C(=O)O)cc1` [MTX, Methotrexate]: in data set [1] (MTX treatment, 1 day, vascular channel), the IP-10 result is listed as “increases”. Also, the “cytokines/chemokines including IP-10” value in [1] was “release”. Also, the “expression of α-SMA (stellate cell activation)” value with stellate cells (setting [11]) is on record as “increased expression”. In [8], the “maximal plasma concentrations at which liver injury occurs in humans” value is ~1 µM. Moreover, the “lipid accumulation detected by Nile red” value in data set [6] (setting [11]) is on record as “microscopic evidence of lipid accumulation”. In addition, in [7] (MTX 1, 10 and 30 μM for 7 days, quadruple-cell chip), the albumin secretion result is recorded as “no abnormalities”.

For `Cc1cc(OCCCS(C)(=O)=O)cc(C)c1-c1cccc(COc2ccc3c(c2)OC[C@H]3CC(=O)O)c1` [TAK-875], in data set [1] (TAK-875 10 μM), the “release of IL-6” value is “significant release” and the “release of MCP-1” value was “significant release”. Moreover, in [1] (TAK-875 30 μM), the “release of IL-6” value was “not observed” and the “release of MCP-1” value is reported as “not observed”. In addition, the “mitochondrial potential sensitive dye TMRM” value in data set [9] is “dose-related and time-dependent redistribution”. In the data set on stellate cells (TAK-875 10 or 30 uM for 15 days), the “% aSMA positive area from the vascular channel” value is “Not significant”. The “incidence of treatment-related elevations in transaminases” value in [3] (human, in vivo) is listed as 2.7%. Besides, the K18 entry in data set [5] (TAK-875 30 μM, 14 days) is “increased release”. Moreover, the “biliary efflux of the MRP2 substrate CDFDA” value at MRP2 is “dose-dependent decrease”. Moreover, the lipid droplet accumulation result in data set [6] (TAK-875, end of the 2-week treatment) was “detected”. The “formation of ROS” value in [10] is recorded as “increase”. The albumin production entry in data set [7] (TAK-875 30 μM, 14 days) is recorded as “decreased”.
